In patent US7019112B1, “Peptides recognized by melanoma-specific A1-, A2- and A3-restricted cytoxic lymphocytes, and uses therefor” (University of Virginia Patent Foundation, priority 1996, dated 2006):
Entries after “also recorded” stand apart in the source; their conditions may differ. Read-outs that look alike come from different tables or passages of the source. Values belong to the compound of their own block, whether it stands above or below them. Where no end group is shown, it is not given here.

What was measured:
T2 cells = test: Chromium release assay: reconstitution of epitopes on peptide-pulsed T2 cells for HLA-A2.1-restricted melanoma-specific CTL; details: for % specific release (of Cr-51), no CTL: T2 + peptide 1 μM; for reconstitution of recognition by CTL lines from 3 additional patients: 946 at 0.1–1 nM, other peptides at equal or higher concentrations, FIG. 12; for effect on epitope reconstitution: VMM5 and DM204-13 CTL, concentrations up to 10 nM; for number of CTL lines/patients recognizing the peptide: HLA-A2.1 restricted melanoma specific CTL lines
Experimental: Cell-mediated killing was determined in vitro using a 4-h chromium release assay. 51Cr-labeled target cells were plated at 2×10^3 cells/well in triplicate on 96-well V-bottom plates (Costar, Cambridge, Mass.) with varying numbers of effector cells in a final volume of 250 microl. Wells containing either culture medium and target cells only or 1 M HCl and target cells served as background 51Cr release controls and total release controls, respectively. The plates were centrifuged at 100×g for 3 min and incubated at 37° C. in 5% CO2 for 4 h. The plates were again centrifuged, and 0.20 ml of medium from each well was removed for counting in a gamma counter. The cytotoxic index was calculated as: Cpm(experimental)−cpm(background)×100% Cpm(total release)−cpm(background) Lytic units were calculated for several of the cytotoxicity assays, using a software package prepared by the National. Cancer Institute (Bethesda, Md.), which solves for the equation y=A×[1−exp(−kx)], where x is the E:T ratio, y is the cytotoxic index, A is the curve maximum, and k is a constant used to calculate the slope of the best fit line. For the purposes of this study, a lytic unit was defined as the number of effector cells needed to mediate […] lysis of target cells. The number of lytic units was calculated per 10^5 effector cells (LU30 per 10^5 cells).
Effector cells were added in 100 microl assay medium to give an E:T ratio of 10:1, and were incubated at 37° C. The remainder of the assay is performed as in standard chromium release assays described above. Wells containing peptide and target cells but no CTL were used as controls to rule out toxicity of the peptides themselves.
HLA-A2.1 molecules were immunoaffinity purified from detergent lysates of the human melanoma cell line DM6. The associated peptides were released by acid extraction, separated from HLA-A2.1 and antibody by filtration, and fractionated by multiple stages of HPLC. […] L. Slingluff Jr., et al, J. Immunol. […] In FIG. 8B Fractions 2 and 3 from the separation shown in panel A were pooled and rechromatographed with a 55 minute gradient of 0 to 30% acetonitrile/0.1% heptafluorobutyric acid (HFBA) in 0.1% HFBA, collecting one-minute fractions. For both panels, peptide: fractions were incubated for 2–3h with 2×10^3 51Cr-labelled T2 cells in […] assay media per well in 96-well plates.
CTL lines VMM5 and VMM6 were generated by stimulation with autologous tumor. VMM5 CTL were maintained on allogeneic. A2.1+melanoma DM6 after specificity was obtained, C. L. Slingluff Jr. et al., J. Immunol. […] DM169-13 and DM204-13 CTL were generated by stimulation with allogeneic A2.1+melanoma DM13, N. J. Crowley et al., J. Immunol. […] LD1 CTL were stimulated on a rotating schedule of stimulating allogeneic A2.1+melanomas DM6, DM13, and DM93. DM93 is an HLA-A2.1+melanoma used as a positive control. […] T2 cells were preincubated with the peptides whose (M+H)^+ values are indicated in the legend, FIG. 12. […] Asterisks (*) mark peptides not evaluated.

VMM12-EBV = test: Screen of Pmel-17/gp100 peptides for sensitizing VMM12-EBV cells for lysis by VMM18 CTL; format: cell-based, human; details: Table 102 (not given)
T2-A3 cells = format: cell-based, human
VMM12 CTL = test: Recognition of Pmel-17 peptide by VMM12 CTL; format: cell-based, human
Source text: However, VMM12 CTL do recognize and lyse VMM18 melanoma cells. Because the only Class I MHC molecule shared by VMM12 and VMM18 is HLA-A3, it is evident that at least one additional shared CTL epitope is expressed by both of these tumors.

C1R-A1 cells [1] = test: Chromium release assay: peptide-pulsed C1R-A1 cells, VMM12 CTL; format: cell-based, human; details: C1R-A1 pulsed with 1 to 0.03 uM peptide; FIG. 23
C1R-A1 cells [2] = test: Chromium release assay: peptide-pulsed C1R-A1 cells, VMM15 CTL; format: cell-based, human; details: for reconstitution of an epitope for VMM15 CTL: C1R-A1 pulsed with 10 uM, 1 uM and 0.1 uM peptide, FIG. 22
[3] = test system: tyrosinase specific CTL clone IVSB; test: Sensitization of target cells for lysis by tyrosinase specific CTL clone IVSB; format: cell-based, human
Source text: T. Wolfei, et. al., Eur. J. Immuno. 24, 759 (1994). […] Even when target cells were pretreated with the monoclonal antibody MA2.1 in order to facilitate exogenous peptide binding to HLA-A2.1. T. Wolfei, et al., Eur. J. Immunol.

[4] = T2-A3, VMM18 CTL, FIG. 18, read-out: half maximal lysis
[5] = CTL clone IVSB, read-out: half maximal lysis

Compound: CC[C@H](C)[C@H](NC(=O)[C@@H](N)Cc1ccc(O)cc1)C(=O)N[C@@H](CCC(=O)O)C(=O)N1CCC[C@H]1C(=O)NCC(=O)N1CCC[C@H]1C(=O)N[C@H](C(=O)N[C@H](C(=O)N[C@@H](C)C(=O)O)[C@@H](C)O)C(C)C [946I]
% specific release (of Cr-51), no CTL (T2 cells): 0.1%

Compound: CC(C)C[C@H](NC(=O)[C@@H](N)Cc1ccc(O)cc1)C(=O)N[C@@H](CCC(=O)O)C(=O)N1CCC[C@H]1C(=O)NCC(=O)N1CCC[C@H]1C(=O)N[C@H](C(=O)N[C@H](C(=O)N[C@@H](C)C(=O)O)[C@@H](C)O)C(C)C [946L]
% specific release (of Cr-51), no CTL (T2 cells): -1.4%

Compound: ALLAVGATK [SEQ ID NO:98]
sensitization of VMM12-EBV for lysis by VMM18 CTL (VMM12-EBV): sensitized VMM12-EBV for lysis by VMM18 CTL | EC50 (T2-A3 cells; [4]): 1 to 10 nM | EC50 (T2-A3 cells; read-out: half-maximal lysis of T2 cells expressing HLA-A3): ~10 nM | recognition by CTL from patient VMM12 (VMM12 CTL): not recognized

Compound: Ala-Xaa-Tyr-Asp-Ala-Thr-Tyr-Glu-Thr, wherein Xaa=Leu or Ile [compound 1046]
reconstitution of recognition by CTL lines from 3 additional patients (T2 cells): neither 864 nor 1046 had any detectable activity | effect on epitope reconstitution (T2 cells): no effect

Compound: DAEKCDICTDEY (cysteine pairing not given here) [SEQ ID NO:101]
reconstitution of an epitope for VMM12 CTL (C1R-A1 cells [1]): reconstituted an epitope for these VMM12 CTL, although weakly | reconstitution of an epitope for VMM15 CTL (C1R-A1 cells [2]): also recognized; also recorded: reconstituted

Compound: EKCDICTDEY (cysteine pairing not given here) [SEQ ID NO:102]
reconstitution of an epitope for VMM15 CTL (C1R-A1 cells [2]): also recognized; also recorded: reconstituted

EC50 (C1R-A1 cells [2]; read-out: half-maximal lysis): ~1000 nM
Compound: KCDICTDEY [SEQ ID NO:93]
half-maximal lysis (C1R-A1 cells [2]): approximately 1 ug/ml | reconstitution of an epitope for VMM15 CTL (C1R-A1 cells [2]): most effective, even at the lowest concentration tested; also recorded: reconstituted | reconstitution of an epitope for VMM15 CTL (C1R-A1 cells [2]; listed as KCDICTDEY): reconstitutes an epitope for VMM15 CTL

Compound: LLAVGATK [SEQ ID NO:4]
sensitization of VMM12-EBV for lysis by VMM18 CTL (VMM12-EBV): sensitized VMM12-EBV for lysis by VMM18 CTL | EC50 (T2-A3 cells; [4]): > 1000 nM

Compound: SMAPGNTSV [compound 864]
reconstitution of recognition by CTL lines from 3 additional patients (T2 cells): neither 864 nor 1046 had any detectable activity | effect on epitope reconstitution (T2 cells): no effect

Compound: Tyr Xaa Glu Pro Gly Pro Val Thr Ala (YXEPGPVTA; not fully specified; X: randomised place (mixture)) [compound 946]
reconstitution of recognition by CTL lines from 3 additional patients (T2 cells): reconstituted recognition by each of these 3 lines | number of CTL lines/patients recognizing the peptide (T2 cells): 5 out of 5 | EC50 (T2 cells; read-out: half-maximal lysis, dose response curves, two of the 3 additional CTL lines): 0.001 to 0.01 nM | EC50 (T2 cells; read-out: half-maximal lysis, other assays): 0.001 nM

Compound: Tyr met Asn Gly Thr Met Ser Gln Val [SEQ ID NO:94]
number of CTL lines/patients recognizing the peptide (T2 cells): None of 4 | EC50 [3, 5]: 10000 nM | EC50 ([3]; target cells pretreated with monoclonal antibody MA2.1, read-out: concentration required to give half-maximal target cell lysis): > 1000 nM

Compound: YMDGTMSQV [SEQ ID NO:9]
EC50 [3, 5]: 100 nM
